Test results taken from paper PMC11233931, “Remodeling tumor‐associated macrophage for anti‐cancer effects by rational design of irreversible inhibition of mitogen‐activated protein kinase‐activated protein kinase 2” (MedComm, 2024).

What was measured:
Experiment in all cases: Eurofins kinase selectivity profile against 380 other human recombinant kinases (Table S2)
Format in all cases: biochemical
[1] = target: T1, 380 human recombinant protein kinases (Homo sapiens, UniProt P04049); settings: c-RAF(h), read-out: Inhibition rate
T1 construct: purchased Eurofins (Celle Lévescault)
T1 sequence (P04049 whole entry): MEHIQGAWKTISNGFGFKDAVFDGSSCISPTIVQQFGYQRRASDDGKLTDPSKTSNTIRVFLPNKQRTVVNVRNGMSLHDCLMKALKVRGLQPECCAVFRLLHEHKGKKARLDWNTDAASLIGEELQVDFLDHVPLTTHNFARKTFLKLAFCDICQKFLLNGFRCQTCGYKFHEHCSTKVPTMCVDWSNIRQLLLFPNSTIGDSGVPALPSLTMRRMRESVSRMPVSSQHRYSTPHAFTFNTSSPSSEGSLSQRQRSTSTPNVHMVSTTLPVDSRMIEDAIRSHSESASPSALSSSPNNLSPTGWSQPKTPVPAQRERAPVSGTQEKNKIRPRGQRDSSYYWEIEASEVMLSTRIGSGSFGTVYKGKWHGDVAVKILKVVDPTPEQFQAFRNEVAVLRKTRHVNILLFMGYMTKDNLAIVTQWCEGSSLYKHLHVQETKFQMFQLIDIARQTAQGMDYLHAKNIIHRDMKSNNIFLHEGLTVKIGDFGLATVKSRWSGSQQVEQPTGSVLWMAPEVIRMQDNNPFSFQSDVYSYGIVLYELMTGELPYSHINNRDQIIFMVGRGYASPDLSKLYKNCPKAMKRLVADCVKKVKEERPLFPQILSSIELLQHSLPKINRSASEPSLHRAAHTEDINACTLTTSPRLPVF
Summary of the method: (§1)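 Values come from a contract kinase-profiling service that tested the compound at multiple concentrations across 380 recombinant human kinases, as an off-target check against the MK2 activity.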

[2] = target: T2, 380 human recombinant protein kinases (Homo sapiens, UniProt Q96RG2); settings: PASK(h), read-out: Inhibition rate
T2 construct: purchased Eurofins (Celle Lévescault)
T2 sequence (Q96RG2 whole entry): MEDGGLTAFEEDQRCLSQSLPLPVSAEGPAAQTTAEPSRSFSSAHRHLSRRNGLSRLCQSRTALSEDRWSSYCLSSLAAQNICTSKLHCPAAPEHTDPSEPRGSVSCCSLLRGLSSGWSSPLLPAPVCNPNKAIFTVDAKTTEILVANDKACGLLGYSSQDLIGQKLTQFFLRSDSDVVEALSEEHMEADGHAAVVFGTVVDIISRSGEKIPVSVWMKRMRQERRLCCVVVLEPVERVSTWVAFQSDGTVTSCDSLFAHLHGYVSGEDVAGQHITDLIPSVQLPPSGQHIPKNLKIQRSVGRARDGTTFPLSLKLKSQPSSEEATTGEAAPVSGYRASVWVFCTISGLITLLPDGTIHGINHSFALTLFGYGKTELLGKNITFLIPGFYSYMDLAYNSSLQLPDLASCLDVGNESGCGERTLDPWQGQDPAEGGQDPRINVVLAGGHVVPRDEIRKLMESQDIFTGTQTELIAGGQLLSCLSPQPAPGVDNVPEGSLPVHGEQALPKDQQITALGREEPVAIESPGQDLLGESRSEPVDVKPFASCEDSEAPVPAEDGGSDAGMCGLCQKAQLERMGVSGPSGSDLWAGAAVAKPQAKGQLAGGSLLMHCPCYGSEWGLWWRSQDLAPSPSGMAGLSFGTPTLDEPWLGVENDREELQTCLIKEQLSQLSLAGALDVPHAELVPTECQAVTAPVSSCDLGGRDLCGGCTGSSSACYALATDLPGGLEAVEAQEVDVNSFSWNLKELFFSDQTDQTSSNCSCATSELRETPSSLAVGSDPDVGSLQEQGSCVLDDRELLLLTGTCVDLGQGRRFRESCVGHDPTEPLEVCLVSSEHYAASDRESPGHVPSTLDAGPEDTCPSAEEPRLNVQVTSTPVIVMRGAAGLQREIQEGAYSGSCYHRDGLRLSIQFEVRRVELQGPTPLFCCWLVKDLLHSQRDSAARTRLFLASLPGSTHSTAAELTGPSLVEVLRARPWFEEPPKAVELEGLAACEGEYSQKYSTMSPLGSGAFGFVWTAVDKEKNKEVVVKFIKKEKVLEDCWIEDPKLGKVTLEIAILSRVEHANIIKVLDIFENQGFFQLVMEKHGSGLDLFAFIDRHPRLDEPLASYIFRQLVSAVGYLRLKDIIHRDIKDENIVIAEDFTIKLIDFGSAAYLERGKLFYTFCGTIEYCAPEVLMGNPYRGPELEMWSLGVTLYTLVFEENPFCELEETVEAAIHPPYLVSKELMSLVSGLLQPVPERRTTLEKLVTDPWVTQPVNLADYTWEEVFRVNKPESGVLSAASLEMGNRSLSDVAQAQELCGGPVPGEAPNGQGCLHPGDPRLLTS
Summary of the method: as §1

[3] = target: T3, 380 human recombinant protein kinases (Homo sapiens, UniProt P36897); settings: TGFBR1(h), read-out: Inhibition rate (%)
T3 construct: purchased Eurofins (Celle Lévescault)
T3 sequence (P36897 34-503): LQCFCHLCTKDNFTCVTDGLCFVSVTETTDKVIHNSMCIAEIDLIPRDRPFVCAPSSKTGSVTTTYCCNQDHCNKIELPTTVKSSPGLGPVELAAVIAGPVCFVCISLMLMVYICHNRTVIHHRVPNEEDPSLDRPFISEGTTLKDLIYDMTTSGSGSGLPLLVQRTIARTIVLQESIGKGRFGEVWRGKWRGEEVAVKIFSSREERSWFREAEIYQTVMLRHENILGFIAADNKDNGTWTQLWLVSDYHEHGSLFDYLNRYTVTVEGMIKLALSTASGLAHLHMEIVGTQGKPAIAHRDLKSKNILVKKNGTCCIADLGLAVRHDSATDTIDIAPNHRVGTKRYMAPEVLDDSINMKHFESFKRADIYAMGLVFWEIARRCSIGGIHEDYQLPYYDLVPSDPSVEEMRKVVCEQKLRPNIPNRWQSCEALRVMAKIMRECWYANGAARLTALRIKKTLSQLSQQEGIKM
Summary of the method: as §1

[4] = target: T4, 380 human recombinant protein kinases (Homo sapiens, UniProt P49840); settings: GSK3α(h), read-out: Inhibition rate
T4 construct: purchased Eurofins (Celle Lévescault)
T4 sequence (P49840 whole entry): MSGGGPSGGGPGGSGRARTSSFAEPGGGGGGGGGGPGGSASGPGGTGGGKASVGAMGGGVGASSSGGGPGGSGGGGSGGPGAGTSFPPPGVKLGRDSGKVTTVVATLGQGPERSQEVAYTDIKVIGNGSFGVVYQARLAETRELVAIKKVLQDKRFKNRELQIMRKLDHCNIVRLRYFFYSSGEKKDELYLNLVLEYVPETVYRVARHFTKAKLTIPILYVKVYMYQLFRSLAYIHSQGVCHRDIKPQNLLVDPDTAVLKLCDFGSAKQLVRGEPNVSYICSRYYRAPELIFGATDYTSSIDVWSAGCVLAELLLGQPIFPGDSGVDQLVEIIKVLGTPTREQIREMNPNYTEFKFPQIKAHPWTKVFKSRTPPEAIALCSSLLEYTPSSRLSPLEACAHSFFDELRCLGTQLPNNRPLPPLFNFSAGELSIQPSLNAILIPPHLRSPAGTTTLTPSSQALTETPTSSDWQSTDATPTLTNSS
Summary of the method: as §1

[5] = target: T5, 380 human recombinant protein kinases (Homo sapiens, UniProt P00519); settings: Abl(h), read-out: Inhibition rate
T5 construct: purchased Eurofins (Celle Lévescault)
T5 sequence (P00519 whole entry): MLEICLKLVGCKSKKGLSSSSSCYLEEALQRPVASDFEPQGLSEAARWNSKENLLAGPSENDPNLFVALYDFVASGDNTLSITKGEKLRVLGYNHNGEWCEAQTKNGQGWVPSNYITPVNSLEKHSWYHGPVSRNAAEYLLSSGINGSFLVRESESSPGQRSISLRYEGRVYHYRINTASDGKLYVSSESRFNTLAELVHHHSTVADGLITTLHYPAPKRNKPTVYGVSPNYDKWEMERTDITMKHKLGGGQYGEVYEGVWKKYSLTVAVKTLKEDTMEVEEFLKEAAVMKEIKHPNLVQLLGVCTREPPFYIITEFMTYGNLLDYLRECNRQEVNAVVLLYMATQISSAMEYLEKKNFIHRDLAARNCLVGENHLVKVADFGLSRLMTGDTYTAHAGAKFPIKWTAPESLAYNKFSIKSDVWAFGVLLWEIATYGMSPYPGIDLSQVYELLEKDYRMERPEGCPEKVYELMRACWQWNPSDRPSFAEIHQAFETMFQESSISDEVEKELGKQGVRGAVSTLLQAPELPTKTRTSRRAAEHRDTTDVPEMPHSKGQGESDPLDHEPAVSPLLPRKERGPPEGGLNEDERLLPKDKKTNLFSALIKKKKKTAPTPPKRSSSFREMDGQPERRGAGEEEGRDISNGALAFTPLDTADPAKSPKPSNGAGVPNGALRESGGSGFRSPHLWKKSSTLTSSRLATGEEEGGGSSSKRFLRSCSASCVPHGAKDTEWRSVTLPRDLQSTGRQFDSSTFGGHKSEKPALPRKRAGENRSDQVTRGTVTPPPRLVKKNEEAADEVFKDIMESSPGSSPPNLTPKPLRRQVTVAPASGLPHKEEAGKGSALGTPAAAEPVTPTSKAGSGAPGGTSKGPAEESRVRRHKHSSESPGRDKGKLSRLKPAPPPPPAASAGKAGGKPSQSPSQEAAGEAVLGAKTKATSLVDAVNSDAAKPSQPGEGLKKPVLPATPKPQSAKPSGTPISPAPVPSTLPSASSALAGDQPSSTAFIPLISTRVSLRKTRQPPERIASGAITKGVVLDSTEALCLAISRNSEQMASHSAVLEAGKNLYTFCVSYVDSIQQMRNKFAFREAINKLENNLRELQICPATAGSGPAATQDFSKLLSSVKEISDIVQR
Summary of the method: as §1

[6] = target: T6, 380 human recombinant protein kinases (Homo sapiens, UniProt P53671); settings: LIMK2(h), read-out: Inhibition rate
T6 construct: purchased Eurofins (Celle Lévescault)
T6 sequence (P53671 whole entry): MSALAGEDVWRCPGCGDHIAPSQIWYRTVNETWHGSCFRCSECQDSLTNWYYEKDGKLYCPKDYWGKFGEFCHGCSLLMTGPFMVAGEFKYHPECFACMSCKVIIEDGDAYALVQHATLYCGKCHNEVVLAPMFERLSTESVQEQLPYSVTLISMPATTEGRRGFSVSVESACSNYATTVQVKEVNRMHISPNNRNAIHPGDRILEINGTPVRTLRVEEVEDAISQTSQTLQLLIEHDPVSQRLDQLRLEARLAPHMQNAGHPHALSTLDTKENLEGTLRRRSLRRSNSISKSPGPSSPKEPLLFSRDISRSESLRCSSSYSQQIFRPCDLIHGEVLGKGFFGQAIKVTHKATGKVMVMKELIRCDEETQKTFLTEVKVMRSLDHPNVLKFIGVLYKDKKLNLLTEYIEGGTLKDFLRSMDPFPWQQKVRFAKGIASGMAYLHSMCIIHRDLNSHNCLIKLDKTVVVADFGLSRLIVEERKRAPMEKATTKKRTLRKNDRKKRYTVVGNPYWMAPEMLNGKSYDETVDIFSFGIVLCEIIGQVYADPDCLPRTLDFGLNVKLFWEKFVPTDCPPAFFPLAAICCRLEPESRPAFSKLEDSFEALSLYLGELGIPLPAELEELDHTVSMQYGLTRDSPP
Summary of the method: as §1

[7] = target: T7, 380 human recombinant protein kinases (Homo sapiens, UniProt Q8NE63); settings: HIPK4(h), read-out: Inhibition rate
T7 construct: purchased Eurofins (Celle Lévescault)
T7 sequence (Q8NE63 1-616): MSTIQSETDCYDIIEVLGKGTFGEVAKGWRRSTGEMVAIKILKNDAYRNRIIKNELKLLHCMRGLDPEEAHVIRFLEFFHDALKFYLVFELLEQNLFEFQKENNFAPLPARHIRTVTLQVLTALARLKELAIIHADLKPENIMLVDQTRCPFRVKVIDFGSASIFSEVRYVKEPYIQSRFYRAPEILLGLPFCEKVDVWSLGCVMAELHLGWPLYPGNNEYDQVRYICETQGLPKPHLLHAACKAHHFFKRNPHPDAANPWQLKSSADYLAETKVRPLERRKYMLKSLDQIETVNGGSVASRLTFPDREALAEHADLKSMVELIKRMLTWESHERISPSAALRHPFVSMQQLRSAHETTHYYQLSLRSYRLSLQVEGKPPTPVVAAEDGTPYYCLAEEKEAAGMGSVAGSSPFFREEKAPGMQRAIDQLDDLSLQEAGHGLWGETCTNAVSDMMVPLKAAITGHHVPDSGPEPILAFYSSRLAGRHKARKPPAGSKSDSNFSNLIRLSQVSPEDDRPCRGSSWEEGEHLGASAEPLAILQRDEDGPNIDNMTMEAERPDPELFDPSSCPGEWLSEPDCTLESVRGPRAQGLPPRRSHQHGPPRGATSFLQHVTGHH
Summary of the method: as §1

[8] = target: T8, 380 human recombinant protein kinases (Homo sapiens, UniProt Q9UPZ9); settings: ICK(h), read-out: Inhibition rate
T8 construct: purchased Eurofins (Celle Lévescault)
T8 sequence (Q9UPZ9 1-632): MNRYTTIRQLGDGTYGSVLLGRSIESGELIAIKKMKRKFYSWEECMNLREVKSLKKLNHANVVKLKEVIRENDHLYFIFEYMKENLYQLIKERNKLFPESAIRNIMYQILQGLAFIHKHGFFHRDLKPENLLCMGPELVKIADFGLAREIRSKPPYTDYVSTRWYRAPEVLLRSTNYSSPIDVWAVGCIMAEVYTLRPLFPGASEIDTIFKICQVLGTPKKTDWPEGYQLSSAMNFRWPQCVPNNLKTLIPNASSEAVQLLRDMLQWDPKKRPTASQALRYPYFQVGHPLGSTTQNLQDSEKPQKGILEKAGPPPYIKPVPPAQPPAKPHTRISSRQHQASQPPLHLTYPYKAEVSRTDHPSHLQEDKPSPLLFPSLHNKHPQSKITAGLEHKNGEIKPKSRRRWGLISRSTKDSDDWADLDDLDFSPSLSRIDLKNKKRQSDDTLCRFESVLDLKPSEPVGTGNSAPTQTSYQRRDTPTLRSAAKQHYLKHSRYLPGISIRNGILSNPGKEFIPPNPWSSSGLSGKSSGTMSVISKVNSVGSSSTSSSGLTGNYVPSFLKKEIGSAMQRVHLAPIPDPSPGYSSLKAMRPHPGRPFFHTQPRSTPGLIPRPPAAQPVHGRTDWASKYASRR
Summary of the method: as §1

For `C=CC(=O)Nc1cc(-c2cc(-c3cc4c([nH]3)CCNC4=O)ccn2)ccc1OC(F)(F)F` [compound 11], the inhibition at 0.01 µM ([1]; 10 nM) was -1%, the inhibition at 0.1 µM ([1]; 100 nM) was 2% and the inhibition at 1 µM ([1]; 1000 nM) was 1%. The inhibition at 0.01 µM ([2]; 10 nM) was 13%, the inhibition at 0.1 µM ([2]; 100 nM) was 4% and the inhibition at 1 µM ([2]; 1000 nM) was 12%. For the same compound, the inhibition at 0.01 µM ([3]; 10 nM) was -7%, the inhibition at 0.1 µM ([3]; 100 nM) was -2% and the inhibition at 1 µM ([3]; 1000 nM) was -4%. The inhibition at 0.01 µM ([4]; 10 nM) was 15%, the inhibition at 0.1 µM ([4]; 100 nM) was -9% and the inhibition at 1 µM ([4]; 1000 nM) was 10%. For the same compound, the inhibition at 0.01 µM ([5]; 10 nM) was -9%, the inhibition at 0.1 µM ([5]; 100 nM) was -5% and the inhibition at 1 µM ([5]; 1000 nM) was 9%. For the same compound, the inhibition at 0.01 µM ([6]; 10 nM) was -9%, the inhibition at 0.1 µM ([6]; 100 nM) was -8% and the inhibition at 1 µM ([6]; 1000 nM) was -1%. For the same compound, the inhibition at 0.01 µM ([7]; 10 nM) was -23%, the inhibition at 0.1 µM ([7]; 100 nM) was -10% and the inhibition at 1 µM ([7]; 1000 nM) was 23%. The inhibition at 0.01 µM ([8]; 10 nM) was 3%, the inhibition at 0.1 µM ([8]; 100 nM) was 18% and the inhibition at 1 µM ([8]; 1000 nM) was 8%.
